According to US20240400515A1, “NPM1-DEPENDING LEUKEMIA AGENTS” (UNIVERSIDAD COMPLUTENSE DE MADRID, priority 2021, published 2024):

How the values were obtained:
[1] = system: MOLM13 (NPM1 C−); assay: Viability assay (WST-1) in MOLM13 cell line; type: cell-based; conditions: Homo sapiens, MOLM-13, viability percentage relative to vehicle, 24 h
Protocol: (§1) Two different acute myeloid leukemia cell lines, OCI-AML3 (NPM1 C+) and MOLM13 (NPM1 C−) were obtained from the DSMZ cell repository (Braunschweig, Germany). Cell lines were expanded and cryogenically frozen upon acquisition to establish stocks in liquid nitrogen until use. Cultured cells were maintained at 37° C. in a humidified incubator in an atmosphere of 5% CO2 and passaged every 2-3 days. RPMI media (Gibco/Life Technologies; Grand Island, NY) supplemented with 10% fetal bovine serum (FBS) (Hyclone) and 1% penicillin/streptomycin was used.
(§2) The sensitivity of the compounds on OCI-AML3 (NPM1 C+) and MOLM13 (NPM1 C−) cell viability was assessed as an in-vitro acute myeloid leukemia (AML) model. Briefly, cells were seeded at a density of 2×10^4 cells/100 μL/well in 96-well plates. Cell lines were treated for 24 h with the test compound diluted in DMSO at the concentration of 5 μM or vehicle (DMSO). Then, 10 μL of WST-1 solution ((2-(4-iodophenyl)-3-(4-nitrophenyl)-5-(2,4-disulfophenyl)-2H-tetrazolium monosodium salt, Merck) were added and the cells were incubated for 4 h at 37° C. The absorbance was measured at 450 nm using an Asys UVM 340 microplate reader (Biochrom Ltd., Cambridge, UK). The background absorbance of blank wells containing only medium was subtracted from each test well. The data were reported as viability percentage relative to vehicle, obtained from two or three independent experiments performed in triplicate (Table 1).

[2] = system: OCI-AML3 (NPM1 C+); assay: Viability assay (WST-1) in OCI-AML3 cell line; type: cell-based; conditions: Homo sapiens, OCI-AML-3, viability percentage relative to vehicle, 24 h
Protocol: as §1, §2

Structure (SMILES) | viability at 5 µM [1] [%] | viability at 5 µM [2] [%]
N[C@@H]1[C@@H](c2ccc(C(F)(F)F)cc2)Cc2[nH]c3ccccc3c2[C@H]1CCNCC1CC1 [Ie, (2R,3R,4R)-4-{2-[(Cyclopropylmethyl)amino]ethyl}-2-[4-(trifluoromethyl)phenyl]-2,3,4,9-tetrahydro-1H-carbazol-3-amine] | 13 ± 3 | 14 ± 5
N[C@@H]1[C@@H](c2ccc(OC(F)(F)F)cc2)Cc2[nH]c3ccccc3c2[C@H]1CCNCC1CC1 [If, (2R,3R,4R)-4-{2-[(Cyclopropylmethyl)amino]ethyl}-2-[4-(trifluoromethoxy)phenyl]-2,3,4,9-tetrahydro-1H-carbazol-3-amine] | 12 ± 3 | 11 ± 4
N[C@@H]1[C@@H](c2cccc(Cl)c2)Cc2[nH]c3ccccc3c2[C@H]1CCNCC1CC1 [Ih, (2R,3R,4R)-2-(3-Chlorophenyl)-4-{2-[(cyclopropylmethyl)amino]ethyl}-2,3,4,9-tetrahydro-1H-carbazol-3-amine] | 28 ± 10 | 25 ± 7
N[C@@H]1[C@@H](c2ccc(Cl)cc2)Cc2[nH]c3ccccc3c2[C@H]1CCNCC1CC1 [Ii, (2R,3R,4R)-2-(4-Chlorophenyl)-4-{2-[(cyclopropylmethyl)amino]ethyl}-2,3,4,9-tetrahydro-1H-carbazol-3-amine] | 13 ± 1 | 13 ± 4
COc1ccccc1[C@H]1Cc2[nH]c3ccccc3c2[C@@H](CCNCC2CC2)[C@@H]1N [Ik, (2R,3S,4R)-4-{2-[(Cyclopropylmethyl)amino]ethyl}-2-(2-methoxyphenyl)-2,3,4,9-tetrahydro-1H-carbazol-3-amine] | 30 ± 2 | 23 ± 3
Cc1cccc([C@H]2Cc3[nH]c4ccccc4c3[C@@H](CCNCC3CC3)[C@@H]2N)c1 [Il, (2R,3R,4R)-4-{2-[(Cyclopropylmethyl)amino]ethyl}-2-(3-methylphenyl)-2,3,4,9-tetrahydro-1H-carbazol-3-amine] | 32 ± 4 | 19 ± 7
Cc1ccccc1[C@H]1Cc2[nH]c3ccccc3c2[C@@H](CCNCC2CC2)[C@@H]1N [Im, (2R,3R,4R)-4-{2-[(Cyclopropylmethyl)amino]ethyl}-2-(2-methylphenyl)-2,3,4,9-tetrahydro-1H-carbazol-3-amine] | 61 ± 7 | 36 ± 8
N[C@@H]1[C@@H](c2ccccc2Cl)Cc2[nH]c3ccccc3c2[C@H]1CCNCC1CC1 [In, (2R,3S,4R)-2-(2-Chlorophenyl)-4-{2-[(cyclopropylmethyl)amino]ethyl}-2,3,4,9-tetrahydro-1H-carbazol-3-amine] | 28 ± 4 | 29 ± 1
N[C@@H]1[C@@H](c2ccc(F)cc2)Cc2[nH]c3ccccc3c2[C@H]1CCNCC1CC1 [Io, (2R,3R,4R)-4-{2-[(Cyclopropylmethyl)amino]ethyl}-2-(4-fluorophenyl)-2,3,4,9-tetrahydro-1H-carbazol-3-amine] | 13 ± 5 | 16 ± 1
N[C@H]1[C@H](c2ccc(F)cc2)Cc2[nH]c3ccccc3c2[C@@H]1CCNCC1CC1 [Ip, (2S,3S,4S)-4-{2-[(Cyclopropylmethyl)amino]ethyl}-2-(4-fluorophenyl)-2,3,4,9-tetrahydro-1H-carbazol-3-amine] | 7 ± 2 | 7 ± 3
N[C@@H]1[C@@H](c2cccc(F)c2)Cc2[nH]c3ccccc3c2[C@H]1CCNCC1CC1 [Iq, (2R,3R,4R)-4-{2-[(Cyclopropylmethyl)amino]ethyl}-2-(3-fluorophenyl)-2,3,4,9-tetrahydro-1H-carbazol-3-amine] | 34 ± 4 | 18 ± 6
CN[C@@H]1[C@@H](c2ccc(OC)cc2)Cc2[nH]c3ccccc3c2[C@H]1CCNCC1CC1 [Ir, (2R,3R,4R)-4-{2-[(Cyclopropylmethyl)amino]ethyl}-2-(4-methoxyphenyl)-N-methyl-2,3,4,9-tetrahydro-1H-carbazol-3-amine] | 15 | 11 ± 3
CN[C@H]1[C@H](c2ccc(OC)cc2)Cc2[nH]c3ccccc3c2[C@@H]1CCNCC1CC1 [Is, (2S,3S,4S)-4-{2-[(Cyclopropylmethyl)amino]ethyl}-2-(4-methoxyphenyl)-N-methyl-2,3,4,9-tetrahydro-1H-carbazol-3-amine] | 6 ± 1 | 1
Cc1ccc([C@H]2Cc3[nH]c4ccccc4c3[C@@H](CCNCC3CC(F)(F)C3)[C@@H]2N)cc1 [Iu, (2R,3R,4R)-4-(2-{[(3,3-Difluorocyclobutyl)methyl]amino}ethyl)-2-(4-methylphenyl)-2,3,4,9-tetrahydro-1H-carbazol-3-amine] | 6 ± 1 | 4 ± 3
CNCC[C@@H]1c2c([nH]c3ccccc23)C[C@H](c2ccc(OC)cc2)[C@H]1N [Iw, (2R,3R,4R)-2-(4-Methoxyphenyl)-4-[2-(methylamino)ethyl]-2,3,4,9-tetrahydro-1H-carbazol-3-amine] | 40 ± 15 | 27 ± 2
Cc1ccc([C@H]2Cc3[nH]c4ccccc4c3[C@@H](CCNCC(C)C)[C@@H]2N)cc1 [Ix, (2R,3R,4R)-2-(4-Methylphenyl)-4-{2-[(2-methylpropyl)amino]ethyl}-2,3,4,9-tetrahydro-1H-carbazol-3-amine] | 0 | 0
Cc1ccc([C@H]2Cc3[nH]c4ccccc4c3[C@@H](CCNC(C)C)[C@@H]2N)cc1 [Iy, (2R,3R,4R)-2-(4-Methylphenyl)-4-{2-[(propan-2-yl)amino]ethyl}-2,3,4,9-tetrahydro-1H-carbazol-3-amine] | 4 ± 4 | 8
CCNCC[C@@H]1c2c([nH]c3ccccc23)C[C@H](c2ccc(C)cc2)[C@H]1N [Iz, (2R,3R,4R)-4-[2-(Ethylamino)ethyl]-2-(4-methylphenyl)-2,3,4,9-tetrahydro-1H-carbazol-3-amine] | 8 ± 3 | 8 ± 4
